Measured values reported in patent US6369101B1, “Therapeutic method to treat herpes virus infection” (Regents of the University of Minnesota, priority 1999, dated 2002).
≈ marks a conversion by molar mass, not a printed value. Read-outs that look alike come from different tables or passages of the source.

Legend:
[1] = CC50 in HFF cells (Table 3); type: cell-based, human; details: human
Procedure: (§1) The cells were observed daily for any change in morphology. The rounding and lysis of cells were observed if the compound has cytotoxic effect. At the end of this time, the media-drug solution was removed and the cells washed. […] The cells-media mixture was then pipetted up and down several times to resuspend the cells and 0.2 ml of the cell suspension was added to 9.8 ml of trypan blue and cells were counted using hemocytometer. Each sample was counted three times with three replicate wells per sample.

Varicella-Zoster Virus = experiment: CPE inhibition in stationary cells (visual), VZV in HFF cells; type: cell-based
[2] = CC50 in Daudi cells (Table 3); type: cell-based; details: human
Procedure: (§8) Raji is a Burkitt's lymphoma cell line containing 60 EBV genome/cell, and was the primary cell used for screening antiviral activity against EBV early antigen (EA) expression. Daudi is a low level producer that contains 152 EBV genome copies/cell. It spontaneously expresses EBV EA in 0.25-0.5% of the cells. It was used in follow-up studies to confirm activity. […] All cell lines were maintained in RPMI-1640 medium supplemented with 10% FCS, L-glutamine and 100 μg/ml gentamicin. The cultures were fed twice weekly and the cell concentration was adjusted to 3×10^5/ml. The cells were kept at 37° C. in humidified atmosphere with 5% CO2.

Epstein-Barr Virus = experiment: VCA expression in EBV-infected Daudi cells
Text: Raji is a Burkitt's lymphoma cell line containing 60 EBV genome/cell, and was the primary cell used for screening antiviral activity against EBV early antigen (EA) expression. […] It spontaneously expresses EBV EA in 0.25-0.5% of the cells. It was used in follow-up studies to confirm activity. These cell lines respond to superinfection by EBV by expressing EA-diffuse component EA (D), EA restricted component EA (R), and viral capsid antigen (VCA). […] The cultures were fed twice weekly and the cell concentration was adjusted to 3×10^5/ml. The cells were kept at 37° C. in humidified atmosphere with 5% CO2.
Cells were infected with the P3HR-1 strain of HBV and the test compound was added after adsorption (45 minutes at 37° C.) and washing of the cell cultures. The cultures were incubated for two days in complete medium to allow viral gene expression. Following the 48 hours of incubation, the numbers of cells of each sample was counted and smears were made. Monoclonal antibodies to the different EA components and VCA were then added to the cells and then incubated and washed. This is followed by a fluorescein conjugated rabbit anti-mouse IgG antibody, and the number of fluorescence cells in the smear were counted. The total number of cells in the cultures positive for EA or VCA were then calculated and compared.

Human Cytomegalovirus = experiment: CPE inhibition in stationary cells (visual), HCMV in HFF cells; type: cell-based
Mouse Cytomegalovirus = experiment: CPE inhibition in stationary cells (visual), MCMV in MEF cells; type: cell-based; details: test compounds in DMSO
[3] = CC50 in MEF cells (Table 3); type: cell-based; details: Mouse Cytomegalovirus section of Table 3
HSV-1 strain E-377 = experiment: CPE inhibition assay, HSV-1 E377 in human foreskin fibroblast cells; type: cell-based, herpes simplex virus type 1; details: CPE inhibition in HFF cells
Procedure: (§2) Stock solutions of the compounds used for the testing of antiviral activity against HSV-1 and HSV-2 were prepared in distilled water, filtered through 0.2 μm filter (Acrodisco®, Gelman Sciences, USA) and stored at room temperature until used.
(§3) Human laryngeal epithelial carcinoma cells (HEp-2, ATCC, Rockville, Md.) were used for testing of antiviral compounds by cytopathic effect (CPE) inhibition and plaque reduction assay. Primary human foreskin fibroblast cells (HFF) obtained from Dr. E. R. Kern (Department of Pediatrics, University of Alabama Medical School, 309 Bevill Biomedical Research Building, 845 19th Street South, Birmingham, Ala., 35294-2170), were used for cytopathic effect (CPE) inhibition assay. HEp-2, African green monkey kidney cells (Vero, ATCC), HFF and primary rabbit kidney cells were used to determine the cytotoxic effect of compounds of formula I. These cells were propagated in Dulbeco's modified Eagle's medium (DMEM) (Sigma, USA) supplemented with 10% inactivated fetal calf serum (FCS), 25 mM HEPES, 0.2% sodium bicarbonate and 1% penicillin/-streptomycin at 37° C. in the presence of 5% CO2.
(§4) The antiviral activity of the test compounds was determined against HSV-1 strain F, HSV-2 strain G (ATCC), HSV-1 strain E-377 and HSV-2 strain MS (Dr. E. R. Kern, see above), CMV strain AD 169 (NIH), HCMV (NIH), MCMV (NIH), and VZV strain Ellen (NIH). Highly infective virus stocks of HSV-1 and HSV-2 were prepared by infecting a confluent monolayer of HEp-2 (ATCC) or HFF in 150 cm^2 plastic tissue culture flasks (Falcon, USA) at a multiplicity of infection of 0.5 in DMEM supplemented with 10% inactivated fetal calf serum and 1% penicillin/streptomycin at 37° C. in the presence of 5% CO2. The infected cells were disrupted through three freeze/thaw cycles, and viruses were clarified from large cell debris by low speed centrifugation at 3000 rpm for 10 minutes. The virus suspension was separated, aliquoted and stored at −80° C. until assayed or used for animal infection. The stock HSV-1 (E377) and HSV-2 (MS strain) contained 3.5×10^8 and 1.1×10^7 pfu/ml respectively.
(§5) Low passage HFF cells were seeded into 96-well tissue culture plates 24 hours prior to use at a cell concentration of 2.5×10^4 cells per ml in 0.2 ml of DMEM supplemented with 10% fetal calf serum. After 24 hours of incubation at 37° C. in the presence of 5% CO2, medium was removed and the test compounds were diluted two-fold in DMEM in the 96-well tissue culture plate containing monolayer. […] For both HSV-1 and HSV-2 assays, the virus concentration utilized was 1000 pfu/ml and for HCMV, MCMV, and VZV assay 2500 pfu/ml were used. The plates were then incubated at 37° C. in the presence of 5% CO2 for two to three days for HSV-1 and HSV-2, 10 days for VZV and 14 days for HCMV and MCMV. The virus induced cytopathic effect (CPE) was monitored microscopically every day. CPE of HSV-1 was recognized by cell rounding and clumping, while HSV-2 formed large syncytia along with rounding and clumping of cells. […] EC50s were estimated from graphical plots of percent CPE against the concentration of the test compounds. The EC50s for each compound are the mean of EC50s for three or more independent experiments. After three days of incubation period, media was aspirated and the cells stained with a 0.1% crystal violet solution for 30 minutes. The stain was then removed and the plates were rinsed with tap water, air dried and retained.

HSV-2 strain MS = experiment: CPE inhibition assay, HSV-2 MS in human foreskin fibroblast cells; type: cell-based, herpes simplex virus type 2; details: CPE inhibition in HFF cells
Procedure: as §2, §3, §4, §5

[4] = system: Primary human foreskin fibroblast cells (HFF); experiment: Cell proliferation assay (cytotoxicity) in HFF cells; type: cell-based
Procedure: as §3, with “Primary human foreskin fibroblast cells (HFF) obtained from Dr. E. R. Kern (Department of Pediatrics, University of Alabama Medical School, 309 Bevill Biomedical Research Building, 845 19th Street South, Birmingham, Ala., 35294-2170), were used for cytopathic effect (CPE) inhibition assay.” left out
(§6) HFF, Vero and HEp-2 cells were seeded in 24-well tissue culture plates at a concentration of […] in DMEM containing 10% FCS and incubated for 24 hours at 37° C. in the presence of 5% CO2. To the monolayer of these cells 0.5, 1.0, 1.5 and 2.0 ml of solution of antiviral compounds were added in the respective wells in duplicate and the cells were then incubated in a 5% CO2 incubator at 37° C. for 72 hours. The cells were observed daily for any change in morphology. […] At the end of this time, the media-drug solution was removed and the cells washed. One ml of 0.25% trypsin was added to each well and incubated until the cells start to come off of the plate. The cells-media mixture was then pipetted up and down several times to resuspend the cells and 0.2 ml of the cell suspension was added to 9.8 ml of trypan blue and cells were counted using hemocytometer. Each sample was counted three times with three replicate wells per sample.

HSV-1 strain F = experiment: CPE inhibition, HSV-1 strain F in HEp-2 cells; also: key: +++ = Complete cytopathic effect; ++ = Moderate cytopathic effect; + = Minimum cytopathic effect; − = No cytopathic effect; type: cell-based, herpes simplex virus type 1; details: conc. per compound (ng/ml)
Text: as §3, §4, §5

HSV-2 strain G = experiment: CPE inhibition, HSV-2 strain G in HEp-2 cells; also: key: +++ = Complete cytopathic effect; ++ = Moderate cytopathic effect; + = Minimum cytopathic effect; − = No cytopathic effect; type: cell-based, herpes simplex virus type 2; details: conc. per compound (ng/ml)
Text: as §3, §4, §5

[5] = system: Human laryngeal epithelial carcinoma cells (HEp-2); experiment: Cytotoxicity in HEp-2 cells; type: cell-based
Procedure: as §3, with “Primary human foreskin fibroblast cells (HFF) obtained from Dr. E. R. Kern (Department of Pediatrics, University of Alabama Medical School, 309 Bevill Biomedical Research Building, 845 19th Street South, Birmingham, Ala., 35294-2170), were used for cytopathic effect (CPE) inhibition assay.” left out
as §6

HSV-2 (strain G) = experiment: Plaque reduction assay, HSV-2 strain G in HEp-2 cells; type: cell-based, herpes simplex virus type 2; details: conc. per compound (ng/ml) (Acyclovir 250), HSV-2 virus control 47
Procedure: (§7) HEp-2 cells were grown to monolayer in 24 well tissue culture plates in DMEM containing 10% fetal calf serum at 37° C. for 24-36 hours in the presence of 5% CO2. The monolayer of HEp-2 cells was infected with 0.1 ml of HSV- 1 (strain F) or HSV-2 (strain G) containing 100 pfu. The viruses were allowed to adsorb for 1 hour at 37° C. in the presence of 5% CO2. All wells containing virus infected cells except virus control were overlaid with 0.9 ml of DMEM and 1 ml of test compound. The virus control and cell control received DMEM only. All microtiter plates were incubated at 37° C. in the presence of 5% CO2 and observed twice daily for 72 hours for viral CPE. At the end of the experiment, plates were stained with 0.1% crystal violet and the results were quantified by counting plaque forming units.

HFF cells = experiment: CC50 in HFF cells (Table 3); type: cell-based, human; details: HFF cells
Procedure: as §1

Daudi cells = experiment: CC50 in Daudi cells (Table 3); type: cell-based
Procedure: as §8

HSV-1 (strain F) = experiment: Plaque reduction assay, HSV-1 strain F in HEp-2 cells; type: cell-based, herpes simplex virus type 1; details: conc. per compound as in column Conc. (ng/ml), HSV-1 virus control 5
Procedure: as §7

MEF cells = experiment: CC50 in MEF cells (Table 3); type: cell-based; details: Mouse Cytomegalovirus section of Table 3
[6] = Human alphaherpesvirus 3, test compounds in DMSO, read-out: EC50
[7] = human gammaherpesvirus 4, Daudi
[8] = Human betaherpesvirus 5, test compounds in DMSO, read-out: EC50
[9] = HFF cells, Human Cytomegalovirus section of Table 3, read-out: CC50
[10] = HEp-2 cells, conc. per compound (ng/ml)
[11] = Human Cytomegalovirus section of Table 3
[12] = Varicella-Zoster Virus section of Table 3
[13] = Daudi cells, Epstein-Barr Virus section of Table 3
[14] = Epstein-Barr Virus, Daudi cells, VCA, test compounds in DMSO

Compound	EC50 (Varicella-Zoster Virus; [6]) [µg/mL]	EC50 (Epstein-Barr Virus; [7]) [µg/mL]	EC50 (Human Cytomegalovirus; [8]) [µg/mL]	CC50 at 72 h [1, 9] [µg/mL]	EC50 HSV-1 E377 (HSV-1 strain E-377) [µg/mL]	EC50 HSV-2 MS (HSV-2 strain MS) [µg/mL]	Cytopathic Effect (CPE) Inhibition HSV-1 Strain F (HSV-1 strain F)	Cytopathic Effect (CPE) Inhibition HSV-2 Strain G (HSV-2 strain G)	Cell Cytotoxicity [5, 10]	Plaque Reduction Assay Average pfu/10^5 Cells HSV-2 Strain G (HSV-2 (strain G)) [pfu/10^5 Cells]	EC50 (Human Cytomegalovirus; test compounds in DMSO) [µg/mL]	CC50 (HFF cells; [11]) [µg/mL]	CC50 (HFF cells; [12]) [µg/mL]	EC50 (Varicella-Zoster Virus; test compounds in DMSO) [µg/mL]	CC50 (Daudi cells; [13]) [µg/mL]	EC50 (Epstein-Barr Virus; [14]) [µg/mL]	also measured
C=C(C)[C@@H]1CC[C@]2(COP(=O)(O)O)CC[C@]3(C)[C@H](CC[C@@H]4[C@@]5(C)CC[C@H](OP(=O)(O)O)C(C)(C)[C@@H]5CC[C@]43C)[C@@H]12 [Betulin diphosphate]	> 0.1	0.00039															CC50 at 72 h ([1]; CC50): > 0.1 µg/mL; CC50 [2]: > 0.05 µg/mL
Nc1nc(O)c2ncn(COC(CO)CO)c2n1 [Ganciclovir ®, Ganciclovir, reference compound]			0.1 (≈ 0.392 µM)	> 100													EC50 (Mouse Cytomegalovirus; read-out: EC50): 0.9 µg/mL (≈ 3.53 µM); CC50 [3]: > 100 µg/mL
C[C@@H]1O[C@@H](O[C@H]2[C@H](O[C@H]3CC[C@@]4(C)[C@@H](CC[C@]5(C)[C@@H]4CC=C4[C@@H]6CC(C)(C)CC[C@]6(C(=O)O)CC[C@]45C)[C@]3(C)CO)OC[C@H](O)[C@@H]2O)[C@H](O)[C@H](O)[C@H]1O [Hederine hydrate, α-hederin hydrate]					>0.25	>0.25	++	++	−	38	>0.004	0.01	0.0115	>0.004	0.0038	0.0015	CC50 ([4]; Human foreskin fibroblast cells, reduces growth of uninfected cells by 50%): >0.25 µg/mL
C[C@H]1[C@H](C)CC[C@]2(C(=O)O)CC[C@]3(C)C(=CC[C@@H]4[C@@]5(C)CC[C@H](O)C(C)(C)[C@@H]5CC[C@]43C)[C@H]12 [Ursolic acid]	> 0.0008	0.0485 (≈ 0.106 µM)	> 0.1	> 0.1			++	++	−	33							CC50 at 72 h ([1]; HFF cells, Varicella-Zoster Virus section of Table 3, read-out: CC50): 0.0029 µg/mL (≈ 0.00635 µM); CC50 ([2]; Daudi cells, Epstein-Barr Virus section of Table 3, read-out: CC50): > 0.05 µg/mL
C[C@H]1[C@H](C)CC[C@]2(CO)CC[C@]3(C)C(=CC[C@@H]4[C@@]5(C)CC[C@H](O)C(C)(C)[C@@H]5CC[C@]43C)[C@H]12 [Uvaol]					>0.25	>0.25	++	++		28	>0.1			>0.02		0.00031 (≈ 0.0007 µM)	CC50 [4]: 0.125 µg/mL (≈ 0.282 µM); Cell Cytotoxicity [5]: −; Plaque Reduction Assay Average pfu/10^5 Cells HSV-1 Strain F (HSV-1 (strain F)): 0 pfu/10^5 Cells; CC50 (Daudi cells): 0.0443 µg/mL (≈ 0.1 µM)
Betulin succinate											0.0039	0.0969	0.0688	>0.02	>0.05	>0.05	EC50 (Mouse Cytomegalovirus): >0.004 µg/mL; CC50 (MEF cells): 0.014 µg/mL
